biological target: T1, human CaSR (Homo sapiens, UniProt P41180); test: Functional whole cell assay (modulation of human CaSR), IP1 accumulation in CHO-K1 cells; assay type: cell-based; details: CHO-K1 cells stably expressing human CaSR, final Ca2+ 1.9 mM, IP1 HTRF; concentration giving 50% of maximum agonistic response
T1 sequence (P41180 20-1078): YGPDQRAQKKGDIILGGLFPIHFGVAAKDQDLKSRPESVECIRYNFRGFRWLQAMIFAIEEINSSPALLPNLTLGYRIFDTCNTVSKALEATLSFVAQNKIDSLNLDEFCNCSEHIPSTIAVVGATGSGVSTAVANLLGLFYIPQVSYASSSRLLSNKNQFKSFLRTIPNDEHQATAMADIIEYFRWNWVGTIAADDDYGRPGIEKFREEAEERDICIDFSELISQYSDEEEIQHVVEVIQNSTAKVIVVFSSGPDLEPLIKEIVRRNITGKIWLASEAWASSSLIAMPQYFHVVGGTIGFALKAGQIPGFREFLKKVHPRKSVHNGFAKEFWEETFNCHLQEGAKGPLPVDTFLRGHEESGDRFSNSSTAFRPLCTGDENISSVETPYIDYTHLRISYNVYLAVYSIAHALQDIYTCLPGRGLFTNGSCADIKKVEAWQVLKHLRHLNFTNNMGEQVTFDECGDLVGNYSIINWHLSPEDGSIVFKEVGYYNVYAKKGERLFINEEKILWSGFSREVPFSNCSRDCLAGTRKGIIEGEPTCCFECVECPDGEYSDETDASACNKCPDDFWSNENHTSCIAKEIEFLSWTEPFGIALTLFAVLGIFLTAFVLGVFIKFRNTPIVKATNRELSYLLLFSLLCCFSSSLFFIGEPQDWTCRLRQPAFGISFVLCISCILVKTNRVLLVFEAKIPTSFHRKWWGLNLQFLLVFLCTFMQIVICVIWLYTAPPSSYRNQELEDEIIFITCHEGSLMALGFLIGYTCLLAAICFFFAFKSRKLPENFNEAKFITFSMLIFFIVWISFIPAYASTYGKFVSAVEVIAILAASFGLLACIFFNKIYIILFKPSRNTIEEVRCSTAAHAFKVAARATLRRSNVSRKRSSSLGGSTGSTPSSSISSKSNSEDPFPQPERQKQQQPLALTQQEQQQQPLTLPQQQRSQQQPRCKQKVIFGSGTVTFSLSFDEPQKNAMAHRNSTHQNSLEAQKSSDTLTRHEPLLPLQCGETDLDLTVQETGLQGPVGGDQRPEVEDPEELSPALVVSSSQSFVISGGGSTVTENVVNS
Description: The assay investigates a compound's functional ability to act as a biological positive modulator on the human CaSR. Activation of the receptor expressed on CHO-K1 cells is detected through the G alpha q pathway, the activation of phospholipase C and the accumulation of intracellular inositol phosphate (IP) as described earlier [Sandrine Ferry, Bruno Chatel, Robert H. Dodd, Christine Lair, Danielle Gully, Jean-Pierre Maffrand, and Martial Ruat. Effects of Divalent Cations and of a Calcimimetic on Adrenocorticotropic Hormone Release in Pituitary Tumor Cells. Biochemical and biophysical research Communications 238, 866-873 (1997)]. The human CaSR is stably expressed on a CHO-K1 cell clone, stimulated with a basal level of calcium and challenged with the tested compound. The level of IP1 is determined using the IP-One Terbium htrf kit (Cisbio, France). CHO-K1 cells not transfected with the CaSR fail to elicit an IP1 response upon calcium and/or compound stimulation.
The ORF coding for the human CaSR (genebank: NM_000388) was acquired from Invitrogen Corp, USA and subsequently cloned into the mammalian expression vector pCDA3.1.
CHO-K1 cells were transfected using Lipofectamine according to manufacturer's protocol (400.000 cells/well were seeded in a 6-well plate and transfected after 24 hours using 2 μg DNA and 5 μl lipofectamine). After another 24 hours the cells were detached, seeded and subjected to 1 mg/ml of G-418. Following 7 days growth single clones were picked, the CaSR expression evaluated using the 5C10 antibody against CaSR, the clones with the highest expression were selected and tested for functional response. The preferred clone was cultured according to standard procedures described in ATCC (American Type Culture Collection) protocols for CHO-K1 with the addition of 500 μg/ml G-418.
On the assay day, cells were thawed, harvested and resuspended to 4*10^6 cells/ml in stimulation buffer (containing: Hepes 10 mM, MgCl2 0.5 mM, KCl 4.2 mM, NaCl 146 mM, glucose 5.5 mM, LiCl 50 mM, BSA 0.5% at pH 7.4). Ten μl cell solution was pipetted into wells of a white 384-well plate (Perkin Elmer Optiplate) containing 2 μl compound diluted in assay buffer (containing: Hepes 10 mM, MgCl2 0.5 mM, KCl 4.2 mM, NaCl 146 mM, glucose 5.5 mM, LiCl 50 mM, CaCl2 11.4 mM at pH 7.4), resulting in a final Ca^2+ concentration of 1.9 mM. After compound stimulation for 1 hour at 37° C. and 15 min at room temperature, 10 ul of IP-One assay detection reagent (prepared as described by the IP-One assay kit manufacturer) was added and the plate was incubated for another 1 hour at room temperature. Finally the plate was read using a Perkin Elmer EnVision, according to the protocol supplied by the IP-One assay kit manufacturer. The FRET ratio was calculated by dividing the 665 nm emission signal with that of the 615 nm.
The molar concentration of a compound that produces 50% of the maximum agonistic response (the […] value) is calculated according to the equation “General sigmoidal curve with Hill slope, a to d” (Equation 1). This model describes a sigmoidal curve with an adjustable baseline. The equation can be used to fit curves where response is either increasing or decreasing with respect to the independent variable, X.
y=(a−d)/(1+(x/c)̂b)+d Equation 1.

EC50 [µM] | Structure (SMILES)
< 0.2 | COc1cc([C@@H](C)N[C@H]2CC[C@@H](c3ccc(C(=O)NCCNC(=O)c4nc[nH]n4)cc3)C2)ccc1F [Compound 101, N-[2-[[4-[(1R,3S)-3-[[(1R)-1-(4-Fluoro-3-methoxy-phenyl)ethyl]-amino]cyclopentyl]benzoyl]amino]ethyl]-1H-1,2,4-triazole-3-carboxamide]
0.2 to 1 | COc1cc([C@@H](C)N[C@H]2CC[C@@H](c3ccc(C(=O)NCCNC(=O)C(O)CO)cc3)C2)ccc1F (stereo partly drawn) [Compound 102, N-[2-(2,3-Dihydroxypropanoylamino)ethyl]-4-[(1R,3S)-3-[[(1R)-1-(4-fluoro-3-methoxy-phenyl)ethyl]amino]cyclopentyl]benzamide]
< 0.2 | COc1cc([C@@H](C)N[C@H]2CC[C@@H](c3ccc(C(=O)NCCNC(=O)CO)cc3)C2)ccc1F [Compound 103, 4-[(1R,3S)-3-[[(1R)-1-(4-Fluoro-3-methoxy-phenyl)ethyl]amino]cyclopentyl]-N-[2-[(2-hydroxyacetyl)amino]ethyl]benzamide]
< 0.2 | COc1cc([C@@H](C)N[C@H]2CC[C@@H](c3ccc(C(=O)NCCNC(=O)C(N)=O)cc3)C2)ccc1F [Compound 104, N-[2-[[4-[(1R,3S)-3-[[(1R)-1-(4-Fluoro-3-methoxy-phenyl)ethyl]amino]cyclopentyl]benzoyl]amino]ethyl]oxamide]
< 0.2 | COc1cc([C@@H](C)N[C@H]2CC[C@@H](c3ccc(C(=O)NCCNC(=O)CS(C)(=O)=O)cc3)C2)ccc1F [Compound 105, 4-[(1R,3S)-3-[[(1R)-1-(4-Fluoro-3-methoxy-phenyl)ethyl]amino]-cyclopentyl]-N-[2-[(2-methylsulfonylacetyl)amino]ethyl]benzamide]

Source: patent publication US20130245084A1, “CALCIUM-SENSING RECEPTOR-ACTIVE COMPOUNDS” (LEO PHARMA A/S, priority 2010, published 2013)
